Results reported in patent US6187755A, “Benzylmaltosides as inhibitors of smooth muscle cell proliferation” (American Home Products Corporation, priority 1999, dated 2001).
pIC50: −log10 of the molar value.

Tests used:
[1] = tested on: Porcine Smooth Muscle Cell; test: Porcine smooth muscle cell antiproliferation, 3H thymidine incorporation; assay type: cell-based; conditions: Sus scrofa, growth factor or serum stimulated, 24-36 h at 37° C., compound added with 3H thymidine and serum / growth factor
Experimental: Effects of Compounds on Cell Proliferation Using ^3 H Thymidine Incorporation
Human and porcine smooth muscle cells were tested in early passage (generally passage 3-7) at sub-confluent conditions. Cultures were grown in 16 mm (24 well) multi-well culture dishes in medium 199 supplemented with 10% fetal bovine serum and 2% antibiotic / antimycotic. At sub-confluence, the cells were placed in a defined serum free medium (AIM-V; Gibco) for 24-48 h prior to initiating the experimental protocol.
Compounds were added to each well at 50 fold dilution (20 AL / well) and the plates were incubated for 24-36 h at 37° C. in 5% CO2. Compounds were initially dissolved in 50% ethanol and serially diluted into media. Compounds were routinely evaluated at concentrations from 1 to 100 μM. As a control, grade II porcine intestinal mucosal heparin (sodium salt) was routinely evaluated in all cell preparations at concentrations from 0.1 to 100 μg/mL.
At the completion of the test procedure, plates were placed on ice, washed three times with ice cold phosphate buffered saline (PBS) and incubated in ice cold 10% trichloroacetic acid (TCA) got 30 min to remove acid soluble proteins. Solution was transferred to scintillation vials containing 0.4 N HCl (500 μL/ vial to neutralize NaOH) and each well was rinsed two times with water (500 μL) for a total volume of 2 mL / vial.
Data was obtained, in triplicate, for both control and experimental samples. Control (100%) data was obtained from maximally stimulated cells, as the result of growth factor or serum stimulation. Experimental data was obtained from cells maximally stimulated with growth factor or serum and treated with compound. Data are expressed as an IC50 in Table I below.

[2] = literature (Reilly 1993); cited from earlier work
[3] = tested on: smooth muscle cell (SMC); conditions: literature; cited from earlier work
[4] = tested on: endothelial cell; conditions: literature (Castellot 1987); cited from earlier work

Compound | pIC50 [1] | other results
CC(=O)Nc1cc(CO[C@@H]2O[C@H](Cn3cnc([N+](=O)[O-])c3)[C@@H](O[C@H]3O[C@@H]4COC(c5ccccc5)O[C@H]4[C@H](O)[C@H]3O)[C@H](O)[C@H]2O)ccc1Cl (stereo partly drawn) [Example 3, N-(5-{[4',6'-O-Benzylidene-6-deoxy-6-(4-nitro-1H-imidazol-1-yl)-β-D-maltosyl]-oxy-methyl}-2-chloro-phenyl)-acetamide] | 5.73 | 
β-cyclodextrin tetradecasulfate |  | inhibition of restenosis [2]: effective inhibitor of restenosis; inhibition of SMC proliferation [3]: smooth muscle cell proliferation inhibitor
CC(=O)Nc1cc(CO[C@@H]2O[C@H](CN3C(=O)c4ccccc4C3=O)[C@@H](O[C@H]3O[C@@H]4COC(c5ccccc5)O[C@H]4[C@H](O)[C@H]3O)[C@H](O)[C@H]2O)ccc1Cl (stereo partly drawn) [Example 7, N-(5-{[4',6'-O-Benzylidene-6-deoxy-6-(1,3-dioxo-1,3-dihydro-isoindol-2-yl)-β-D-maltosyl]-oxy-methyl}-2-chloro-phenyl)-acetamide] | 5.80 | 
CC(=O)Nc1cc(CO[C@@H]2O[C@H](Cn3cnc([N+](=O)[O-])c3)[C@@H](O[C@H]3O[C@@H]4COC(c5ccccc5)O[C@H]4[C@H](O)[C@H]3O)[C@H](O)[C@H]2O)ccc1C (stereo partly drawn) [Example 1, N-(5-{[4',6'-O-Benzylidene-6-deoxy-6-(4-nitro-1H-imidazol-1-yl)-β-D-maltosyl-oxy]-methyl}-2-methyl-phenyl)-acetamide] | 4.96 | 
CC(=O)Nc1cc(CO[C@@H]2O[C@H](CI)[C@@H](O[C@H]3O[C@@H]4COC(c5ccccc5)O[C@H]4[C@H](OC(C)=O)[C@H]3OC(C)=O)[C@H](OC(C)=O)[C@H]2OC(C)=O)ccc1Cl (stereo partly drawn) [Example 4, N-{5-[(2,2',3,3'-Tetra-O-acetyl-4',6',-O-benzylidene-6-deoxy-6-iodo-β-D-maltosyl)-oxy-methyl]-2-chloro-phenyl}-acetamide] | 6.70 | 
heparin |  | inhibition of SMC proliferation [3]: endogenous inhibitors of SMC proliferation; endothelial cell growth [4]: able to promote endothelial cell growth
heparan sulfate |  | inhibition of SMC proliferation [3]: endogenous inhibitors of SMC proliferation; endothelial cell growth [4]: able to promote endothelial cell growth
CC(=O)Nc1cc(CO[C@@H]2O[C@H](CN=[N+]=[N-])[C@@H](O[C@H]3O[C@@H]4COC(c5ccccc5)O[C@H]4[C@H](O)[C@H]3O)[C@H](O)[C@H]2O)ccc1Cl (stereo partly drawn) [Example 8, N-{5-[(6-Deoxy-6-azido-4',6'-O-benzylidene-β-D-maltosyl)-oxy-methyl]-2-chloro-phenyl}-acetamide] | 6.21 | 
CC(=O)Nc1cc(CO[C@@H]2O[C@H](CN3C(=O)c4ccccc4C3=O)[C@@H](O[C@H]3O[C@@H]4COC(c5ccccc5)O[C@H]4[C@H](OC(C)=O)[C@H]3OC(C)=O)[C@H](OC(C)=O)[C@H]2OC(C)=O)ccc1Cl (stereo partly drawn) [Example 6, N-(5-{[2,2',3,3'-Tetra-O-acetyl-4',6'-O-benzylidene-6-deoxy-6-(1,3-dioxo-1,3-dihydro-isoindol-2-yl)-β-D-maltosyl]-oxy-methyl}2-chloro-phenyl)-acetamide] | 6.08 | 
CC(=O)Nc1cc(CO[C@@H]2O[C@H](CI)[C@@H](O[C@H]3O[C@@H]4COC(c5ccccc5)O[C@H]4[C@H](O)[C@H]3O)[C@H](O)[C@H]2O)ccc1Cl (stereo partly drawn) [Example 5, N-{5-[(4',6',-O-Benzylidene-6-deoxy-6-iodo-β-D-maltosyl)-oxy-methyl]-2-chloro-phenyl}-acetamide] | 5.94 | 
CC(=O)Nc1cc(CO[C@@H]2O[C@H](Cn3cnc([N+](=O)[O-])c3)[C@@H](O[C@H]3O[C@@H]4COC(c5ccccc5)O[C@H]4[C@H](OC(C)=O)[C@H]3OC(C)=O)[C@H](OC(C)=O)[C@H]2OC(C)=O)ccc1Cl (stereo partly drawn) [Example 2, N-(5-{[2,3,2',3'-Tetra-O-acetyl-4',6'-O-benzylidene-6-deoxy-6-(4-nitro-1 H-imidazol-1-yl)-β-D-maltosyl]-oxy-methyl}-2-chloro-phenyl)-acetamide] | 6.09 | 
